# Measured values published in US12140600B2, “Method for measuring activated partial thromboplastin time” (SYSMEX CORPORATION, priority 2019, dated 2024).
# Assay: Effect of suppressing precipitation of ellagic acid-metal ion complex (salting out, dynamic light scattering and visual check)
# Assay type: physicochemical
# Settings: for degree of increase in particle size of complex with respect to the increase in salt concentration / precipitation, visually confirmed: additive 100 μM; for degree of increase in particle size of complex with respect to the increase in salt concentration: sodium chloride 10, 50 or 100 mM, FIG. 3; for precipitation, visually confirmed: sodium chloride concentration 100 mM; for precipitation suppressing effect versus additive concentration: additive at various concentrations, FIGS. 4A and 4B
# Description: In an APTT reagent comprising a metal ion complex of ellagic acid as an activator, when the salt concentration increases, the complex particle size increases by the salting-out effect, and finally precipitation occurs. By utilizing the principle of salting out, the effect of suppressing the precipitation of various additives in ellagic acid-metal ion complex solutions was confirmed.
# An ellagic acid-metal ion complex solution was prepared to contain 50 mM HEPES, 8 mM TAPS, and 1% by mass glycine as buffer components, 100 μM ellagic acid, 60 μM zinc chloride, and 50 μM aluminum chloride as a metal ion complex of ellagic acid, and 0.05% ProClin (trademark) 300 (Sigma-Aldrich Co., LLC.) as a preservative. A complex solution comprising each additive at a concentration of 100 μM was obtained by mixing this solution with any one selected from gallic acid, pyrogallol, hydroquinone, 5-methylpyrogallol, resorcinol, or cyclohexanetriol as an additive. As a control, an ellagic acid-metal ion complex solution not comprising an additive was used.
# Each complex solution prepared in (1) above was mixed with a 5 M sodium chloride solution to obtain a mixed solution (test group) having a sodium chloride concentration of 10 mM, 50 mM, or 100 mM. The relationship between the salt concentration in each mixed solution and the average particle size of complex was confirmed by a dynamic scattered light method using Zetasizer Nano (Malvern Panalytical Ltd.). The results are illustrated in FIG. 3.
# The effect of suppressing precipitation was confirmed in the same manner as in (2) above using the complex solutions containing gallic acid or pyrogallol at various concentrations. The results are illustrated in FIGS. 4A and 4B.
degree of increase in particle size of complex with respect to the increase in salt concentration,Structure (SMILES),"precipitation, visually confirmed",precipitation suppressing effect versus additive concentration
small,O=C(O)c1cc(O)c(O)c(O)c1 [gallic acid],precipitation has not been visually confirmed,precipitation suppressing effect is observed at all concentrations
small,Oc1cccc(O)c1O [pyrogallol],precipitation has not been visually confirmed,precipitation suppressing effect is observed at all concentrations
